The values that follow are results of earlier work, collected in PubChem BioAssay AID1259409 (Chemical Carcinogenesis Research Information System (CCRIS), 2018).

This series concerns rodent chemically induced tumor inhibition, incidence and multiplicity. Nature of the series: CCRIS tumor inhibitor studies. The note with it: Species: MOUSE.

Regarding `CC(C)(C)c1cc(O)c(C(C)(C)C)cc1O`, the “tumour outcome (control, treated, inhibition, significance)” value (Carcinogen: BENZO[A]PYRENE, 50-32-8, Dose [Inhibitor]: 0.03 MMOL/G OF DIET DAILY STARTING 8 D BEFORE AND CONTINUING THROUGH 3 D AFTER CARCINOGEN TREATMENT FOLLOWED BY OBSERVAT, Route [Inhibitor]: ORAL, Strain/Sex: ICR/FEMALE, Target Tissue: Type of Lesion: FORESTOMACH: NEOPLASM, Dose [Carcinogen]: 1 MG IN 0.2 ML CORN OIL 2/WK FOR 4 WK, Promoter: NONE USED) is listed as 90%, 95%, -6%, not significant.
For the compound `Cn1c(=O)[nH]c(=O)c2[nH]cnc21`, the “tumour outcome (control, treated, inhibition, significance)” value by setting is: (Carcinogen: URETHANE, 51-79-6, Dose [Inhibitor]: 0.05 UMOL/G BW GIVEN AT 6 HR INTERVALS DURING THE PERIOD OF 0 TO 36 HR AFTER CARCINOGEN TREATMENT FOLLOWED BY 5 MO OBSER, Route [Inhibitor]: INTRAPERITONEAL, Strain/Sex: ICR/FEMALE, Target Tissue: Type of Lesion: LUNG: PAPILLARY ADENOMA, Dose [Carcinogen]: 0.1 MG/G BW ONCE, Promoter: NONE USED) 31/59 (53%), 26/44 (59%), -11%, not significant; (Carcinogen: URETHANE, 51-79-6, Dose [Inhibitor]: 0.25 UMOL/G BW 1/D DURING THE PERIOD OF 5 TO 9 D AFTER CARCINOGEN TREATMENT FOLLOWED BY OBSERVATION PERIOD UNTIL END OF, Route [Inhibitor]: INTRAPERITONEAL, Strain/Sex: ICR/FEMALE, Target Tissue: Type of Lesion: LUNG: PAPILLARY ADENOMA, Dose [Carcinogen]: 1 MG/G BW ONCE, Promoter: NONE USED) 49/53 (93%), 50/53 (94%), -1%, not significant.
Turning to `Cc1c2ccncc2c(C)c2c1[nH]c1ccccc12`, the “tumour outcome (control, treated, inhibition, significance)” value is, setting by setting: (Carcinogen: 7,12-DIMETHYLBENZ[A]ANTHRACENE, 57-97-6, Dose [Inhibitor]: 0, 4.1 NMOL IN 0.2 ML ACETONE APPLIED 5 MIN PRIOR TO CARCINOGEN (STUDY DURATION: 21 WK), Route [Inhibitor]: DERMAL, Strain/Sex: SENCAR/FEMALE, Target Tissue: Type of Lesion: SKIN: PAPILLOMA, Dose [Carcinogen]: 10 NMOL IN 0.2 ML ACETONE ONCE, Promoter: 12-O-TETRADECANOYLPHORBOL-13-ACETATE, 16561-29-8) 79%, 100%, -27%, not calculated; (Carcinogen: 7,12-DIMETHYLBENZ[A]ANTHRACENE, 57-97-6, Dose [Inhibitor]: 0, 41 NMOL IN 0.2 ML ACETONE APPLIED 5 MIN PRIOR TO CARCINOGEN (STUDY DURATION: 21 WK), Route [Inhibitor]: DERMAL, Strain/Sex: SENCAR/FEMALE, Target Tissue: Type of Lesion: SKIN: PAPILLOMA, Dose [Carcinogen]: 10 NMOL IN 0.2 ML ACETONE ONCE, Promoter: 12-O-TETRADECANOYLPHORBOL-13-ACETATE, 16561-29-8) 79%, 87%, -10%, not calculated; (Carcinogen: 7,12-DIMETHYLBENZ[A]ANTHRACENE, 57-97-6, Dose [Inhibitor]: 0, 410 NMOL IN 0.2 ML ACETONE APPLIED 5 MIN PRIOR TO CARCINOGEN (STUDY DURATION: 21 WK), Route [Inhibitor]: DERMAL, Strain/Sex: SENCAR/FEMALE, Target Tissue: Type of Lesion: SKIN: PAPILLOMA, Dose [Carcinogen]: 10 NMOL IN 0.2 ML ACETONE ONCE, Promoter: 12-O-TETRADECANOYLPHORBOL-13-ACETATE, 16561-29-8) 79%, 47%, 41%, not calculated; (Carcinogen: 7,14-DIMETHYLBENZO[A,H]ANTHRACENE, 35335-07-0, Dose [Inhibitor]: 0, 4.1 NMOL IN 0.2 ML ACETONE APPLIED 5 MIN PRIOR TO CARCINOGEN (STUDY DURATION: 21 WK), Route [Inhibitor]: DERMAL, Strain/Sex: SENCAR/FEMALE, Target Tissue: Type of Lesion: SKIN: PAPILLOMA, Dose [Carcinogen]: 47.5 NMOL IN 0.2 ML ACETONE ONCE, Promoter: 12-O-TETRADECANOYLPHORBOL-13-ACETATE, 16561-29-8) 97%, 100%, -3%, not calculated; (Carcinogen: 7,14-DIMETHYLBENZO[A,H]ANTHRACENE, 35335-07-0, Dose [Inhibitor]: 0, 41 NMOL IN 0.2 ML ACETONE APPLIED 5 MIN PRIOR TO CARCINOGEN (STUDY DURATION: 21 WK), Route [Inhibitor]: DERMAL, Strain/Sex: SENCAR/FEMALE, Target Tissue: Type of Lesion: SKIN: PAPILLOMA, Dose [Carcinogen]: 47.5 NMOL IN 0.2 ML ACETONE ONCE, Promoter: 12-O-TETRADECANOYLPHORBOL-13-ACETATE, 16561-29-8) 97%, 93%, 4%, not calculated; (Carcinogen: 7,14-DIMETHYLBENZO[A,H]ANTHRACENE, 35335-07-0, Dose [Inhibitor]: 0, 410 NMOL IN 0.2 ML ACETONE APPLIED 5 MIN PRIOR TO CARCINOGEN (STUDY DURATION: 21 WK), Route [Inhibitor]: DERMAL, Strain/Sex: SENCAR/FEMALE, Target Tissue: Type of Lesion: SKIN: PAPILLOMA, Dose [Carcinogen]: 47.5 NMOL IN 0.2 ML ACETONE ONCE, Promoter: 12-O-TETRADECANOYLPHORBOL-13-ACETATE, 16561-29-8) 97%, 90%, 7%, not calculated. Also, the “tumour outcome (control, treated, inhibition, significance)” value is 100%, 87%, 13%, not calculated (Carcinogen: DIBENZO[A,H]ANTHRACENE, 53-70-3, Dose [Inhibitor]: 0, 4.1 NMOL IN 0.2 ML ACETONE APPLIED 5 MIN PRIOR TO CARCINOGEN (STUDY DURATION: 21 WK), Route [Inhibitor]: DERMAL, Strain/Sex: SENCAR/FEMALE, Target Tissue: Type of Lesion: SKIN: PAPILLOMA, Dose [Carcinogen]: 200 NMOL IN 0.2 ML ACETONE ONCE, Promoter: 12-O-TETRADECANOYLPHORBOL-13-ACETATE, 16561-29-8); 100%, 97%, 3%, not calculated (Carcinogen: DIBENZO[A,H]ANTHRACENE, 53-70-3, Dose [Inhibitor]: 0, 41 NMOL IN 0.2 ML ACETONE APPLIED 5 MIN PRIOR TO CARCINOGEN (STUDY DURATION: 21 WK), Route [Inhibitor]: DERMAL, Strain/Sex: SENCAR/FEMALE, Target Tissue: Type of Lesion: SKIN: PAPILLOMA, Dose [Carcinogen]: 200 NMOL IN 0.2 ML ACETONE ONCE, Promoter: 12-O-TETRADECANOYLPHORBOL-13-ACETATE, 16561-29-8); 100%, 97%, 3%, not calculated (Carcinogen: DIBENZO[A,H]ANTHRACENE, 53-70-3, Dose [Inhibitor]: 0, 410 NMOL IN 0.2 ML ACETONE APPLIED 5 MIN PRIOR TO CARCINOGEN (STUDY DURATION: 21 WK), Route [Inhibitor]: DERMAL, Strain/Sex: SENCAR/FEMALE, Target Tissue: Type of Lesion: SKIN: PAPILLOMA, Dose [Carcinogen]: 200 NMOL IN 0.2 ML ACETONE ONCE, Promoter: 12-O-TETRADECANOYLPHORBOL-13-ACETATE, 16561-29-8).
